Measurements taken from patent US4477463A, “Antiinflammatory and/or analgesic 1-alkyl-4,5-diaryl-2-fluoroalkyl-1H-pyrroles” (E. I. Du Pont de Nemours and Company, priority 1982, dated 1984).
Read-outs that look alike come from different tables or passages of the source.

Columns and labels:
[1] = tested on: adjuvant-induced arthritis in rats; test: Established Adjuvant-Induced Arthritis in Rats; assay type: in vivo, Charles River Lewis male rats; settings: for ED50: Rattus norvegicus, read-out: Adjuvant Arthritic ED50; for percent reduction in paw volume: at 9 mg/kg
[2] = tested on: phenylquinone-induced writhing in mice; test: Phenylquinone Writhing Test; assay type: in vivo, female white mice; settings: Mus musculus, read-out: Phenylquinone Writhing (PQW) ED50
Protocol: Phenylquinone Writhing Test
A test compound suspended in 1% methylcellulose was given orally to fasted (17-21 hours) female white mice, 5-20 animals per double blind test. Aqueous (0.01% phenyl-p-benzoquinone) phenylquinone, 0.20 ml per mouse, was injected intraperitoneally 6 minutes before observations were begun.

[3] = ED50% decrease from control paw volume (uninjected, left hind paw), oral, daily for 7 days, read one day after last dose
[4] = effective analgesic dose for 50% of the mice, oral, 0.01% phenylquinone 0.20 ml i.p.
[5] = oral, daily for 7 days, read one day after last dose

Compound | ED50 ([1]; po) | ED50 ([2]; po) | ED50 [1, 3] | ED50 [2, 4] | percent reduction in paw volume [1, 5]
CC(=O)Oc1ccccc1C(=O)O [Aspirin, reference compound] | 305 mg/kg | 135 mg/kg |  |  | 
COc1ccc(-c2cc(C(F)(F)F)n(C)c2-c2ccc(OC)cc2)cc1 [Example 1, 4,5-Bis(4-methoxyphenyl)-1-methyl-2-trifluoromethyl-1H-pyrrole] |  |  | 1.25 mg/kg | 16 mg/kg | 
COc1ccc(-c2cc(C(F)(F)C(F)(F)F)n(C)c2-c2ccc(OC)cc2)cc1 [Example 2, 4,5-bis(4-methoxyphenyl)-1-methyl-2-pentafluoroethyl-1H-pyrrole] |  |  |  | 1.8 mg/kg | 32%
CCn1c(C(F)(F)F)cc(-c2ccc(OC)cc2)c1-c1ccc(OC)cc1 [Example 3] |  |  | 18 mg/kg | 47 mg/kg | 
Cn1c(C(F)(F)F)cc(-c2ccc(Cl)cc2)c1-c1ccc(Cl)cc1 [Example 4] |  |  |  |  | 29%
Cc1ccc(-c2cc(C(F)(F)F)n(C)c2-c2ccc(C)cc2)cc1 [Example 5] |  |  |  | 18 mg/kg | 28%
CSc1ccc(-c2c(-c3ccc(F)cc3)cc(C(F)(F)F)n2C)cc1 [Example 6, 4-(4-fluorophenyl)-1-methyl-5-(4-methylthiophenyl)-2-trifluoromethyl-1H-pyrrole] |  |  | 1.8 mg/kg | 16 mg/kg | 
Cn1c(C(F)(F)F)cc(-c2ccc(F)cc2)c1-c1ccc(S(C)(=O)=O)cc1 [Example 7, 4-(4-fluorophenyl)-1-methyl-5-(4-methylsulfonylphenyl)-2-trifluoromethyl-1H-pyrrole] |  |  | 3.5 mg/kg |  | 
CSc1ccc(-c2cc(C(F)(F)F)n(C)c2-c2ccc(SC)cc2)cc1 [Example 8, 1-methyl-4,5-bis(4-methylthiophenyl)-2-trifluoromethyl-1H-pyrrole] |  |  | 1.8 mg/kg | > 108 mg/kg | 
CC(C)Cc1ccc(C(C)C(=O)O)cc1 (stereo not shown) [Ibuprofen, reference compound] |  |  | 100 mg/kg | 10 mg/kg | 
COc1ccc2c(c1)c(CC(=O)O)c(C)n2C(=O)c1ccc(Cl)cc1 [Indomethacin, reference compound] | 0.3 mg/kg | 0.35 mg/kg |  |  | 
CCCCC1C(=O)N(c2ccccc2)N(c2ccccc2)C1=O [Phenylbutazone, reference compound] |  |  | 10 mg/kg | 80 mg/kg | 
